Source: patent US20220401483A1, “COMBINATION OF A T CELL THERAPY AND (S)-3-[4-(4-MORPHOLIN-4-YLMETHYL-BENZYLOXY)-L-OXO-L,3-DIHYDRO-ISOINDOL-2-YL]-PIPERIDINE-2,6-DIONE” (Juno Therapeutics, Inc., priority 2019, published 2022)

Key:
Type in all cases: cell-based, human
anti-CD19 CAR T cells [1] = test: RNA-seq gene expression of anti-CD19 CAR T cells sorted from tumor spheroids
Protocol: Gene expression analysis of anti-CD19 CAR T cells sorted from tumor spheroids 5 days after co-culture as described above was analyzed by RNA sequencing (RNA-seq) on the complementary DNA (cDNA) samples prepared from the RNA isolated from the long-term stimulated CAR-expressing T cells or on CAR-expressing T cells that had not undergone the long-term stimulation. Libraries for RNA-seq were sequenced on Illumina NextSeq system. Reads were mapped to the human reference genome GRCh38, and gene expression levels were quantified in Array Studio. Differential expression (DE, for RNA-seq) analysis was performed using DESeq2.
The dots on the top left quadrant represent genes induced by chronic stimulation and the dots on the lower right quadrant represent genes reversed by Compound A.
Pathway enrichment analysis of the differentially expressed genes were performed using clusterProfiler.
Gene expression analysis by RNA-seq was carried out substantially as described in Example 3.

[2] = system: A549.CD19 tumor spheroids; test: A549.CD19 tumor spheroid model, rescue treatment of chronically stimulated CAR T cells
Protocol: An A549.CD19 tumor spheroid model was further used to elucidate the T cell modulatory activity of the compounds. A549.CD19 tumor spheroid growth is insensitive to monotherapy treatment with the immunomodulatory compounds. CAR T cells that had been stimulated for 6 days with anti-ID were co-cultured by incubation with A549.CD19 tumor spheroids, in the presence of presence of Compound A (0.001 μM, 0.01 μM, or 0.1 μM). Averaged measurement of tumor spheroid size at Day 9 following co-culture with CAR-T cells was assessed. […] The number of CAR T cells in co-cultures with tumor spheroids, measured at day 5, were increased with treatment with Compound A (FIG. 5B).
Cytokines (IFNγ, IL-2 and TNFalpha) were measured from supernatant of the chronically stimulated CAR T cells above that had been co-cultured for 5 days with CD19 tumor spheroids. The log 2 fold change compared to control cells (chronically stimulated cells that had not been concurrently treated with immunomodulatory compound) is shown in FIG. 5E.

RL tumor spheroids = test: RL tumor spheroid model with anti-CD19 CAR T cells; conditions: Day 4; 1 μM Compound B, 0.01 μM or 0.1 μM Compound A
Protocol: Cytolytic activity was also assessed in a spheroid model. About 5,000 RL cells were plated 48 hours prior to addition of 5,000 anti-CD19 CAR T cells (1:1 E:T ratio). Anti-CD19 CAR T cells were co-cultured with RL tumor spheroids, in the presence of Compound B (1 μM) or Compound A (0.001 μM, 0.01 μM or 0.1 μM)).

Ikaros = test: Intracellular Ikaros expression in stimulated anti-CD19 CAR-expressing T cells (flow cytometry MFI)
Protocol: T cell compositions containing anti-CD19 CAR-expressing T cells were generated from leukapheresis samples from three healthy human adult donors by a process including immunoaffinity-based selection of T cells (including CD4+ and CD8+ cells) from the samples, resulting in two compositions, enriched for CD8+ and CD4+ cells, respectively. The cells were incubated in the presence of (S)-3-[4-(4-morpholin-4-ylmethyl-benzyloxy)-1-oxo-1,3-dihydro-isoindol-2-yl]-piperidine-2,6-dione (Compound A) or 3-(5-amino-2-methyl-4-oxo-4H-quinazolin-3-yl)-piperidine-2,6-dione (Compound B), and expression of the transcription factors Ikaros and Aiolos was assessed. Cells of the enriched CD4+ and CD8+ compositions were separately activated with anti-CD3/anti-CD28 beads and subjected to lentiviral transduction with a vector encoding an anti-CD19 CAR. The anti-CD19 CAR contained an anti-CD19 scFv derived from a murine antibody (variable region derived from FMC63), an immunoglobulin-derived spacer, a transmembrane domain derived from CD28, a costimulatory region derived from 4-1BB, and a CD3-zeta intracellular signaling domain. The expression construct in the viral vector further contained sequences encoding a truncated receptor, which served as a surrogate marker for CAR expression, which was separated from the CAR sequence by a T2A ribosome skip sequence. Transduced populations then were separately incubated in the presence of stimulating reagents for cell expansion. Expanded CD8+ and CD4+ cells were formulated and cryopreserved separately and stored. The cryopreserved CD4+ and CD8+ anti-CD19 CAR-expressing cells from each donor were thawed, and combined at approximately a 1:1 CAR+CD4+:CD8+ ratio prior to use. Approximately 2.5×10^5 cells of the generated CAR+ T cell composition were stimulated overnight with 1 μg/ml of a CAR-specific anti-idiotypic antibody in the presence of 3-(5-amino-2-methyl-4-oxo-4H-quinazolin-3-yl)-piperidine-2,6-dione (Compound B) or (S)-3-[4-(4-morpholin-4-ylmethyl-benzyloxy)-1-oxo-1,3-dihydro-isoindol-2-yl]-piperidine-2,6-dione (Compound A) at concentrations ranging from 10 to 10000 nM or a vehicle control overnight at 37° C., 5% C02. Following overnight incubation, anti-CD19 CAR-expressing T cells were stained with antibodies and analyzed by flow cytometry to assess intracellular levels of Ikaros and Aiolos in CD4+ CAR+ or CD8+ CAR+ cells, as measured by median fluorescence intensity (MFI). Median fluorescence intensity (MFI) values for Ikaros and Aiolos were normalized and calculated as a percentage relative to vehicle control. […] The EC50 for reducing Aiolos and Ikaros expression was calculated as determined from the concentration of the inhibitor that reduced Aiolos or Ikaros MFI to 50% of its maximal MFI in the absence of the inhibitor.

anti-CD19 CAR T cells [3] = test: Proliferation and cell cycle of acutely stimulated anti-CD19 CAR T cells
Protocol: Cell cycle and proliferation of anti-CD19 CAR T cells was measured by labeling cells using the Click-iT™ EdU Cell Proliferation Kit after which the prepared cells were analyzed by flow cytometry for DNA content. Numbers of anti-CD19 CAR T cells were measured over time using an IncuCyte® Live-Cell Analysis System.
As shown, treatment with Compound A reduced the proliferation of anti-CD19 CAR T cells. To further assess the effects on reducing proliferation, cell cycle was measured by flow cytometry by analyzing DNA content. FIG. 7D depicts plots of the percentage of cells in G1 phase (mean±SEM from data pooled from 3 donors and 2 independent experiments).

O=C1CC[C@H](N2Cc3c(OCc4ccc(CN5CCOCC5)cc4)cccc3C2=O)C(=O)N1 [Compound A, (S)-3-[4-(4-morpholin-4-ylmethyl-benzyloxy)-1-oxo-1,3-dihydro-isoindol-2-yl]-piperidine-2,6-dione]
expression changes in genes of T cell function pathways after chronic stimulation (anti-CD19 CAR T cells [1]; concurrent treatment): can be reversed | expression changes in genes of T cell function pathways after chronic stimulation (anti-CD19 CAR T cells [1]; rescue treatment): can also be reversed | number of CAR T cells in co-cultures with tumor spheroids ([2]; day 5, 0.01 μM or 0.1 μM): increased | CAR T cell cytolytic function, A549.CD19 spheroid growth ([2]; rescue, 0.001, 0.01 or 0.1 μM, Day 9): improved | IFNγ in co-culture supernatant ([2]; rescue, 5 days co-culture with spheroids): statistically significant increase | sensitivity of RL tumor spheroids to compound (RL tumor spheroids): sensitive | intracellular Ikaros expression (Ikaros; 10 to 10000 nM, overnight): concentration dependent decrease | EC50 (Ikaros; overnight incubation, 1 μg/ml anti-idiotypic antibody, average of donors (range, 95% confidence interval)): 4 nM | proliferation of anti-CD19 CAR T cells (anti-CD19 CAR T cells [3]; 1 nM, 10 nM or 100 nM): reduced | percentage of cells in the G1 phase (anti-CD19 CAR T cells [3]; 3 days treatment): statistically significant increase
